{
  "source": "paper PMC12423301",
  "about": "“Astrocytic monoamine oxidase B (MAOB)–gamma-aminobutyric acid (GABA) axis as a molecular brake on repair following spinal cord injury” (Signal Transduction and Targeted Therapy, 2025)",
  "key": {"[1]": {"assay": "in vivo", "conditions": "Sprague-Dawley, rat"}, "[2]": {"assay": "Genetic toxicology (reverse mutation, chromosomal aberration, micronucleus)", "experimental": "Protocol No. NB_KDS_ADP1_21 Confidential administration of the test substance to rats at a dose of 50-200 mg/kg daily for 2 weeks, there were no deaths.\nAs a result of oral administration to rats at doses of 30, 50, 75 and 100 mg/kg once daily for 4 weeks, […]\ntestis, epididymis and lungs. Renal epithelial hyperplasia and inflammatory cells infiltration in the renal pelvis observed in the male and female dose groups of 75 mg/kg or more, germ cell degeneration/loss and seminiferous tubules atrophy observed in the male dose groups of 75 mg/kg or more, and vacuole/degeneration of outer medullary tubules and basophilic tubules observed in the female dose groups were judged to be adverse effects due to administration of the test substance. Proximal tubular hyaline granules in the kidney, basophilic tubules, testicular germ cell degeneration/loss, and alveolar macrophage aggregation in the lungs(females) were observed even after a 2-week recovery period. Accordingly, in repeated administrations of rats for 4 weeks, the NOAEL(No Observed Adverse Effect Level) was determined to be 50 mg/kg/day for males and 30 mg/kg for females. As a result of repeated oral administrations of 0, 25, 50 or 100 mg/kg/day for 2 weeks to Cynomolgus […]\nmale dose group of 50 mg/kg/day, and a distal tubule/collecting duct dilatation and papillary duct epithelial cell […]\nthe NOAEL was judged as 40 mg/kg for both males and females. As a result of the safety pharmacology test, […]\nthe genetic toxicology, the reverse mutation test, the chromosomal aberration assay, and the micronucleus assay […]\nIn a pharmacokinetic study, plasma PK parameters were measured after a single oral administration of […]\na result of measuring excretion into urine, feces, expiration, and bile, 6.9% was excreted in urine and 48.5% in feces, respectively, up to 168 hours after administration. Excretion to air through respiration was about 0.0% until 48 hours after administration, and 44.1% of the administered radioactivity concentration was present in the body (carcass). […]"}, "[3]": {"assay": "GLP toxicity tests in monkeys"}, "[4]": {"system": "diphtheria toxin receptor-inducible transgenic mice", "format": "in vivo, mouse"}, "[5]": {"assay": "Phase 1 clinical trial: pharmacokinetics", "experimental": "All subjects provided consent for this phase 1 clinical trial study. The study comprised 11 cohorts: single ascending dose (SAD) and multiple ascending dose (MAD) studies. […] Cohort 3 employed a two-period crossover design with a 14-day washout.\nThe parameters related to plasma concentrations were calculated via non-compartmental analysis using the linear-up log-down method in Phoenix WinNonlin software version 8.3 (Certara, US). The parameters related to urine concentrations were calculated using the linear trapezoidal linear interpolation method.\nIn the SAD study, plasma samples were collected using sodium K2-EDTA tubes at pre-dose, 0.33, 0.75, 1, 2, 3, 4, 6, 8, 12, 24, 48, 72, 96, 120, and 144 h after dosing. Urine samples were collected up to 72 h post-dose. In the MAD study, plasma samples were collected at pre-dose, 0.33, 0.75, 1, 2, 3, 4, 6, 8, 12 and 24 h after the administration of the first dose, and at pre-dose of the third to seventh doses. After the administration of the seventh dose, plasma samples were collected at the same time points as after the first dose, with additional sampling points at 48, 72, 96, 120, and 144 h post-dose. Urine samples were collected for 24 h after the administration of the first dose and for 72 h after the seventh dose.\nFor the clinical trial, dose proportionality of the PK parameters (Cmax, Cmax,ss, AUClast, and AUCτ) was assessed using power model using the following equation: log (PK parameter) = β0 + β1 log (dose). The regression slope (β1) and the intercept (β0) were estimated with 95% confidence interval (CI) using PROC REG in SAS version 9.4. The PK parameters were considered dose-proportional if the 95% CI of the β1 included 1. […] Using a linear mixed effect model, the logarithmized PK parameters were analyzed with the high-gat meal as a fixed effect and inter-individual differences as a random effect. The GMR and its 90% CI of the PK parameters of the high-fat meal were calculated relative to those in the fasting state. […] In elderly subjects, the same analyses were performed and compared to those of healthy younger adults."}},
  "data": [
    {"smiles": "CS(=O)(=O)O.C[C@H](NCc1ccc(-c2ccc(C(F)(F)F)cc2)cc1)C(N)=O", "note": "[KDS2010, (S)-2-(((4’-Trifluoromethylbiphenyl-4-yl)methyl)amino)propanamide methane-sulfonate]", "values": [
      {"measurement": "MTD", "setting": "[1]; po", "result": 700, "unit": "mg/kg"},
      {"measurement": "NOAEL at 4 weeks", "setting": "[1]; female, NOAEL", "result": 30, "unit": "mg/kg"},
      {"measurement": "NOAEL at 4 weeks", "setting": "[1]; female, human equivalent dose (HED) of NOAEL", "result": 4.84, "unit": "mg/kg"},
      {"measurement": "NOAEL at 4 weeks", "setting": "[1]; male, NOAEL", "result": 50, "unit": "mg/kg/day"},
      {"measurement": "chromosomal aberration assay", "setting": "[2]", "result": "negative"},
      {"measurement": "micronucleus assay", "setting": "[2]", "result": "negative"},
      {"measurement": "reverse mutation test", "setting": "[2]", "result": "negative"},
      {"measurement": "adverse effects", "setting": "[3]; oral 0, 10, 20, and 40 mg/kg for 4 weeks, 2 weeks recovery", "result": "no adverse effects related to the test substance"},
      {"measurement": "mortality", "setting": "[3]; oral 2 weeks, 100 mg/kg/day male and female, 50 mg/kg/day male", "result": "a dying condition or mortality was observed"},
      {"measurement": "brain atrophy", "setting": "[4]", "result": "restored to the level of control group"},
      {"measurement": "neurofilament (NF)", "setting": "[4]", "result": "reducing"},
      {"measurement": "neuronal factors NeuN and MAP2", "setting": "[4]", "result": "increasing"},
      {"measurement": "survival", "setting": "[4]", "result": "increase in survival"},
      {"measurement": "increase of systemic exposure (AUCinf and AUCτ,ss) with dose", "setting": "[5]; 60 mg to 480 mg", "result": "dose-proportional"},
      {"measurement": "higher exposure in elderly subjects", "setting": "[5]; 120 mg for 7 days, elderly vs young", "result": "approximately 25%"},
      {"measurement": "pharmacokinetic profiles, Korean vs Caucasian subjects", "setting": "[5]; 60, 120, 240, 480 mg at steady state", "result": "similar"},
      {"measurement": "unchanged drug excreted in the urine", "setting": "[5]; healthy humans", "result": "Less than 1%"},
      {"measurement": "AUC(0-inf)", "setting": "[5]; human, in vivo, 120 mg", "result": 13900, "unit": "ng·h/mL"},
      {"measurement": "effect of a high-fat meal on systemic exposure (Cmax and AUCinf)", "setting": "[5]; human, in vivo, 120 mg", "result": "did not affect"},
      {"measurement": "half-life", "setting": "[5]; human, in vivo, po", "result": 44.2, "unit": "h"},
      {"measurement": "time to maximum plasma concentration (Cmax)", "setting": "[5]; human, in vivo, po", "result": 3, "unit": "h"}
    ]}
  ]
}
